Experimental data: patent EP0838225A2, “Aqueous local anesthetic solution” (Hiji, Yasutake, priority 1996, dated 1998)

Key:
[1] = Turbidity and clearness of local anesthetic solutions from absorbance at 620 nm (Experimental Example 1); format: physicochemical; settings: for OD (620 nm): absorbance at wavelength of 620 nm, CD added at equimolar concentration, pH as in label; for clearness (%) / turbidity (%): calculated from absorbance at 620 nm
Experimental: The turbidity and clearness of each inclusion compound solution were calculated from the absorbances thus obtained. […] In the same manner as above, OD (620 nm) was determined with respect to the obtained inclusion compound solution of each local anesthetic in cyclodextrin or a derivative thereof, and solutions of each local anesthetic. The turbidity and clearness of each inclusion compound solution were calculated from the absorbances thus obtained.

[2] = Absorbance at 620 nm and pH of solutions over time after stirring (Experimental Example 2); format: physicochemical; settings: N=4; for pH: average; for absorbance at 620 nm: mean±S.E.
Experimental: The absorbance at wavelength 620 nm [OD(620 nm)] and pH of 0.4% dibucaine solution were determined using UV-visible recording spectrophotometer (UV-2100, Shimadzu Corporation). The solution was stirred, and OD (620 nm) and pH were determined at 5 min, 24 hr, 48 hr and 72 hr later.
OD (620 nm) and pH of the inclusion compound solution were determined in the same manner as above. The solution was stirred, and OD (620 nm) and pH were determined.
In the same manner as above, OD (620 nm) and pH of 1.0% tetracaine solution and an inclusion compound solution prepared by adding hydroxypropyl-β-cyclodextrin having an equimolar concentration to 1.0% tetracaine solution were determined. The solutions were stirred, and OD (620 nm) and pH were determined.
In the same manner as above, OD (620 nm) and pH of 0.5% bupivacaine solution and an inclusion compound solution prepared by adding α-cyclodextrin having an equimolar concentration to 0.5% bupivacaine solution were determined. The solutions were stirred, and OD (620 nm) and pH were determined.
The solutions were stirred, and OD (620 nm) and pH were determined.

[3] = system: abdominal giant nerve bundle of crayfish; experiment: Anesthetic concentration versus action potential disappearance and recovery time (Experimental Example 7); format: cell-based, crayfish (Procambarus clarkii)
From the text: A local anesthetic effect is known to be stronger in alkaline range where pH value is greater.
In addition, the relationship between dibucaine concentration and neuroaction potential recovery time was examined at pH 7.4.

in vivo = settings: mouse, sc, 40 mg/kg
Experimental: (§1) While local anesthetics are known to show inhibitory action on the central nerve cells at high concentrations, they show stimulating action at low concentrations. […] That is, 0.5 %dibucaine dissolved in physiological saline was subcutaneously injected into the back of 11 mice by 0.3 ml (40 mg/kg body weight), which were compared with 11 mice that underwent subcutaneous injection of a solution containing 0.5% dibucaine and α-cyclodextrin having an equimolar concentration, by 0.3 ml (40 mg/kg body weight).

mice = experiment: in vivo; settings: mouse, sc, 40 mg/kg
Experimental: as §1

Structure (SMILES)	OD (620 nm) [1]	clearness (%) [1] [%]	turbidity (%) [1] [%]	pH ([2]; 5 min later)	absorbance at 620 nm ([2]; 5 min later)	pH ([2]; 24 hr later)	absorbance at 620 nm ([2]; 24 hr later)	pH ([2]; 48 hr later)	absorbance at 620 nm ([2]; 48 hr later)	pH ([2]; initial)	absorbance at 620 nm ([2]; initial)	pH ([2]; 72 hr later)	absorbance at 620 nm ([2]; 72 hr later)	dibucaine concentration at which action potential disappeared and recovered ([3]; pH 7.4)	mortality (in vivo) [%]	time to death from the injection (mice)	action potential disappearance time (expression of anesthetic action) ([3]; 0.4% lidocaine, pH 7.5) [min]	action potential disappearance time (expression of anesthetic action) ([3]; 2% lidocaine, pH 6.5) [min]
CCCCN1CCCCC1C(=O)Nc1c(C)cccc1C (stereo not shown) [bupivacaine]	2.108	0	100	7.20	0.087±0.015	6.89	0.659±0.084	6.77	0.247±0.061	5.44	0.000	–	–	–	–	–	–	–
CCCCOc1cc(C(=O)NCCN(CC)CC)c2ccccc2n1 [dibucaine]	2.015	0	100	6.85	1.528±0.087	6.76	1.456±0.079	6.73	1.385±0.042	6.19	0.000	6.75	1.412±0.054	0.008%-0.05%	91	about 20 min	–	–
CCN(CC)CC(=O)Nc1c(C)cccc1C [lidocaine]	–	–	–	7.09	1.045±0.242	7.05	0.717±0.152	7.10	0.382±0.044	4.59	0.006	7.12	0.595±0.086	–	–	–	2	80
CCCCNc1ccc(C(=O)OCCN(C)C)cc1 [tetracaine]	2.732	0	100	7.12	0.517±0.024	7.04	0.411±0.024	7.05	0.386±0.015	5.49	0.000	7.05	0.301±0.025	–	–	–	–	–
